In ChEMBL document CHEMBL1909599, “Synthesis and anti-HIV-1 activity of 4-substituted-7-(2'-deoxy-2'-fluoro-4'-azido-β-D-ribofuranosyl)pyrrolo[2,3-d]pyrimidine analogues” (Bioorg Med Chem Lett, 2011) one finds EC50 data, which are given here for four compounds.

The experiment relates to Human immunodeficiency virus 1. The experiment is described as follows: Antiviral activity against Human immunodeficiency virus 1 assessed as inhibition of viral replication by MTT assay. Type of experiment: functional, organism-based.
On to `[N-]=[N+]=N[C@]1(CO)O[C@@H](n2ccc3c(O)ncnc32)[C@@H](F)[C@@H]1O`, for which the EC50 stood at 13000 nM.
As for `[N-]=[N+]=N[C@]1(CO)O[C@@H](n2ccc3c(N)ncnc32)[C@@H](F)[C@@H]1O`, the EC50 turned out to be 500 nM.
Take `[N-]=[N+]=N[C@]1(CO)O[C@@H](n2cc(F)c3c(N)ncnc32)[C@@H](F)[C@@H]1O`: the EC50 was found to be 5400 nM.
With `Cc1cn([C@H]2C[C@H](N=[N+]=[N-])[C@@H](CO)O2)c(=O)[nH]c1=O` [ZIDOVUDINE] the figure was 84 nM.
